In patent US20200397675A1, “METHOD FOR IMPROVING SOLUBILITY OF SPARINGLY WATER-SOLUBLE COMPONENT” (ADEKA CORPORATION, priority 2018, published 2020) one finds solubility data, which are given here for 1 compound.

This series in a line: Investigation of solubility of sparingly water-soluble components in Solutions 1 to 9 (0.1 g additions until turbidity). The settings on record: 25° C.

Method: In addition, confirmation that turbidity or precipitation had not occurred was carried out by adding 0.1 g of the sparingly water-soluble component at a time, stirring for 10 minutes at 25° C. and then leaving to stand. […] Moreover, further tests were not carried out in cases where the solubility exceeded 5 [g/100 g solution].

Compound `CCCCC(CC)COCC(O)CO` (stereo not drawn) [2-ethylhexyl glyceryl ether] came in with a solubility (Comparative Example 1, Solution 1 (water 100 g)) of 0.2 g/100 g solution; a solubility (Comparative Example 2, Solution 4 (water 90 g, ethanol 10 g)) of 0.3 g/100 g solution; a solubility (Comparative Example 3, Solution 5 (water 90 g, propylene glycol 10 g)) of 0.3 g/100 g solution; a solubility (Comparative Example 4, Solution 6 (water 90 g, dipropylene glycol 10 g)) of 0.3 g/100 g solution; a solubility (Comparative Example 5, Solution 7 (water 90 g, butylene glycol 10 g)) of 0.2 g/100 g solution; a solubility (Comparative Example 6, Solution 8 (water 90 g, glycerin 10 g)) of 0.2 g/100 g solution. In addition, the solubility is 1.5 g/100 g solution (Example 1, Solution 2 (water 90 g, Compound (1)-1 10 g)); 2.3 g/100 g solution (Example 2, Solution 3 (water 90 g, Compound (1)-2 10 g)); greater than 5 g/100 g solution (Example 3, Solution 9 (water 80 g, Compound (1)-2 10 g, butylene glycol 10 g)).
